Measured values published in patent publication US11046962B2, “Lux expression in cells and methods of use” (490 BioTech, Inc., priority 2019, dated 2021).

Key:
[1] = system: CM-luxAB/CDEF cardiomyocytes; assay: Cardiotoxicity reporting by CM-luxAB/CDEF line, autobioluminescent output after 24 hours; format: cell-based; details: Homo sapiens, Cardiomyocyte, 24 hours of treatment
Method: The autobioluminescent CM-luxAB/CDEF line was treated with a range of doxorubicin (uM) concentrations, and autobioluminescent output was measured after 24 hours of treatment.
The CM-luxAB/CDEF line was treated with a range of doxorubicin concentrations, and the autobioluminescent output was measured after twenty-four (24) hours of treatment. The percent change in average radiance (p/s/cm^2/sr) relative to control was plotted against the corresponding doxorubicin (uM) treatment.

[2] = system: iPSC-derived cardiomyocytes (CMs); assay: Doxorubicin exposure of cardiomyocytes differentiated from tet-luxCDABEF/tTA iPSCs, autobioluminescence imaging; format: cell-based; details: Homo sapiens, Cardiomyocyte, 18 hours exposure prior to imaging, read-out: estimated EC50
Method: FIG. 16. Human induced pluripotent stem cells (iPSCs) bearing genomically integrated polycistronic lux operon (luxCDABEF) under control of the tetracycline responsive promoter (tet-luxCDABEF) and a separately integrated CBA-driven transactivator (tTA) were differentiated into cardiomyocytes (CMs). After maturation for approximately 1.5 weeks, the CMs were subjected to doxorubicin exposure. CMs were exposed to doxorubicin at the indicated range of concentrations for 18 hours prior to imaging.

[3] = system: CM-luxAB/CDEF cardiomyocytes; assay: Continuous cardiotoxicity monitoring with CM-luxAB/CDEF cardiomyocytes over 30 hours
iPSC-luxAB/CDEF cells = assay: Compound toxicity tracking in iPSC-luxAB/CDEF line by autonomous luminescent output and MTT; format: cell-based, Human; details: range of concentrations, 24 hours
Method: First, iPSC-luxAB/CDEF cells were seeded in a volume of medium in two separate multi-well plates. Identical platings of untransfected cells were made along with platings of medium to serve as positive and negative controls. For the first plate, the cells were subjected to increasing concentrations of the cytotoxic compound doxorubin. For the second plate, the cells were subjected to increasing concentrations of the cytotoxic compound rotenone. The cells were then incubated under standard growth conditions for twenty four (24) hours. After this time period, the plates was imaged for luminescent output. Bioluminescent readings were obtained using a Synergyll plate reader (BioTek).
Following this reading, the plates were subjected to viability analysis using the MTT assay according to the manufacturer's instructions. MTT assay values were obtained as absorbance values at 570 nm using a Synergyll plate reader (BioTek) and reported as percentage of absorbance relative to untreated control cells. For all measurements, the background absorbance values derived from the medium only controls were subtracted to provide background corrected averages. Absorbance values from each treatment level were averaged, and the average values for each of the plates were used to determine standard errors of the mean for each assay.

**Q.** What does the source list for `COc1cccc2c1C(=O)c1c(O)c3c(c(O)c1C2=O)C[C@@](O)(C(=O)CO)C[C@@H]3O[C@H]1C[C@H](N)[C@H](O)[C@H](C)O1` [doxorubicin]?
**A.** IC50 [1]: 290 nM; EC50 [2]: 410 to 740 nM; time of exposure at which the IC50 stabilizes ([3]; kinetic IC50 values over time course, measured every 10 minutes): ~30 h; autobioluminescent output with increasing concentrations ([3]; real time monitoring, 25 hours after addition): decreasing autobioluminescent output; change of autonomous luminescent signal output indicative of cellular viability (iPSC-luxAB/CDEF cells): dose dependent changes
